Experimental data as given in the supplement of paper PMC10307832.

Legend:
Test in all cases: relative viability (nuclei count vs DMSO), 5 days (fraction); higher = more cells survive
IMD-0354 + Olaparib = compound: O=C(Nc1cc(C(F)(F)F)cc(C(F)(F)F)c1)c1cc(Cl)ccc1O [IMD-0354] + O=C(c1cc(Cc2n[nH]c(=O)c3ccccc23)ccc1F)N1CCN(C(=O)C2CC2)CC1 [Olaparib] (partner 8 µM)
Summary of the method: (§1)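 Lung cancer cell lines in 1536-well plates got either a single drug or a fixed anchor-drug dose together with five library-drug doses (not always all listed) in √10 steps, by pin tool, on the day after seeding. Nuclei were counted after 5 days, and relative viability is the treated-to-vehicle ratio of nuclei counts. Values are medians of duplicate plates.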

CX-5461 + Pictilisib = compound: Cc1cnc(CNC(=O)c2c(=O)c3ccc(N4CCCN(C)CC4)nc3n3c2sc2ccccc23)cn1 [CX-5461] + CS(=O)(=O)N1CCN(Cc2cc3nc(-c4cccc5[nH]ncc45)nc(N4CCOCC4)c3s2)CC1 [Pictilisib] (partner 1 µM)
Summary of the method: as §1

IMD-0354 + Tozasertib = compound: O=C(Nc1cc(C(F)(F)F)cc(C(F)(F)F)c1)c1cc(Cl)ccc1O [IMD-0354] + Cc1cc(Nc2cc(N3CCN(C)CC3)nc(Sc3ccc(NC(=O)C4CC4)cc3)n2)n[nH]1 [Tozasertib] (partner 0.1 µM)
Summary of the method: as §1

CX-5461 + Foretinib = compound: Cc1cnc(CNC(=O)c2c(=O)c3ccc(N4CCCN(C)CC4)nc3n3c2sc2ccccc23)cn1 [CX-5461] + COc1cc2c(Oc3ccc(NC(=O)C4(C(=O)Nc5ccc(F)cc5)CC4)cc3F)ccnc2cc1OCCCN1CCOCC1 [Foretinib] (partner 0.25 µM)
Summary of the method: as §1

Cell Line	relative viability (IMD-0354 + Olaparib; first compound 0.04 µM)	relative viability (IMD-0354 + Olaparib; first compound 0.1265 µM)	relative viability (IMD-0354 + Olaparib; first compound 0.4 µM)	relative viability (IMD-0354 + Olaparib; first compound 1.265 µM)	relative viability (IMD-0354 + Olaparib; first compound 4 µM)	relative viability (CX-5461 + Pictilisib; first compound 0.01 µM)	relative viability (CX-5461 + Pictilisib; first compound 0.03162 µM)	relative viability (CX-5461 + Pictilisib; first compound 0.1 µM)	relative viability (CX-5461 + Pictilisib; first compound 0.3162 µM)	relative viability (CX-5461 + Pictilisib; first compound 1 µM)	relative viability (IMD-0354 + Tozasertib; first compound 0.04 µM)	relative viability (IMD-0354 + Tozasertib; first compound 0.1265 µM)	relative viability (IMD-0354 + Tozasertib; first compound 0.4 µM)	relative viability (IMD-0354 + Tozasertib; first compound 1.265 µM)	relative viability (IMD-0354 + Tozasertib; first compound 4 µM)	relative viability (CX-5461 + Foretinib; first compound 0.01 µM)	relative viability (CX-5461 + Foretinib; first compound 0.03162 µM)	relative viability (CX-5461 + Foretinib; first compound 0.1 µM)	relative viability (CX-5461 + Foretinib; first compound 0.3162 µM)	relative viability (CX-5461 + Foretinib; first compound 1 µM)
H3255	0.49	0.541	0.435	0.37	0.318	0.489	0.554	0.469	0.347	0.422	0.631	0.602	0.493	0.586	0.387	0.907	0.854	0.818	0.558	0.835
NCI-H1993	0.917	0.982	0.819	0.651	0.541	0.778	0.83	0.891	0.84	0.819	0.626	0.623	0.487	0.452	0.479	0.738	0.779	0.813	0.746	0.788
NCI-H1734	0.608	0.68	0.465	0.421	0.175	0.516	0.519	0.503	0.317	0.341	0.267	0.267	0.265	0.231	0.117	0.88	0.878	0.941	0.634	0.758
HOP-62	0.262	0.413	0.347	0.15	0.0835	0.592	1.16	0.727	0.167	0.623	0.46	0.374	0.263	0.228	0.108	1.09	1.14	1.08	1.01	1.04
LOU-NH91	0.938	0.447	0.285	0.147	0.282	0.57	0.497	0.528	0.452	0.486	0.774	0.626	0.523	0.184	0.174	1.02	1.02	0.935		0.942
ChaGo-K-1	0.34	0.455	0.375	0.241	0.218	0.938	0.658	0.564	0.35	0.395	0.226	0.196	0.236	0.171	0.176	0.927	0.981	0.917	0.597	0.883
NCI-H2228	0.888	0.586	0.482	0.274	0.172	0.646	0.425	0.255	0.432	0.153	0.181	0.256	0.275	0.185	0.175	0.691	1.03	0.763	0.747	0.13
PC-14	0.223	0.276	0.269	0.0804	0.126	0.788	1.05	0.972	0.583	0.636	0.675	0.61	0.353	0.312	0.076	1	1.04	1.04	0.962	0.887
NCI-H1437	0.669	0.574	0.376	0.218	0.232	0.381	0.471		0.408	0.382	0.457	0.394	0.289	0.262	0.224	1.25	1.26		1.23	1.18
NCI-H460	0.395	0.322	0.363	0.0469	0.0473	0.462	0.338	0.366	0.108	0.2	0.485	0.35	0.443	0.127	0.0269	0.912	0.955		1.04	0.0917
NCI-H1666	0.752	0.748	0.857	0.703	0.562	0.375	0.533		0.337	0.349	0.672	0.587	0.488	0.369	0.309	1.02	0.969	0.962	0.916	0.692
NCI-H1651	0.189	0.196	0.177	0.177	0.124		0.414		0.489	0.105	0.662	0.658	0.317	0.363	0.0982	0.734	0.55		0.598	0.168
NCI-H1755	0.782	0.907	0.707	0.585	0.23	0.463	0.484	0.446	0.301	0.383	0.566	0.627	0.435	0.407	0.294	0.934	0.905	0.889	0.913	0.898
NCI-H661	0.752	0.774	0.356	0.256	0.261	0.372	0.405	0.377	0.374	0.382	0.319	0.344	0.34	0.273	0.257	0.928	0.98	0.985	0.497	0.673
HARA	0.455	0.697	0.935	0.167	0.311	0.634	0.559	0.37	0.497	0.267	0.102	0.132	0.105	0.0599	0.0875	1.01	1.09	0.806		0.89
NCI-H596	0.758	0.635	0.701	0.818	0.463	0.465	0.406	0.372	0.429	0.344	1.02	0.946	0.599	0.955	0.503	0.896	1.18	0.888	1.03	0.97
